Data set [1] deals with human histamine 3 receptor (hH3R) (Homo sapiens (Human), UniProt Q9Y5N1). The experiment in a line: Binding affinity of human histamine 3 receptor (hH3R), [3H] labeled N-α-methylhistamine displacement. As to conditions: hH3R-overexpressed cell membrane, [3H] N-α-methylhistamine. How it is done: 10 μL of the prepared compound solution was allocated in each well of a 96-well plate, and then 10 μL of 200 μM (R)(−)-α-methylhistamine (RaMH) diluted with analysis buffer and 1% of DMSO were transferred to each well to calculate non-specific binding and total binding degree. 15 μg of human histamine 3 receptor-overexpressed cell membrane (PerkinElmer) was diluted with 180 μL of analysis buffer solution (50 mM tris-HCl pH 7.4, 5 mM MgCl2), and that was transferred to each well. [^3H] labeled Na-methylhistamine (PerkinElmer) was diluted into […], 10 μL of that was added to each well, and then it was kept in a 27° C. incubator for 30 minutes. After the reaction, 200 μL of the mixture was transferred to a glass fiber plate in which 0.5% polyethylene amine was presoaked, and then non-binding [^3H] labeled Na-methylhistamine was removed in vacuum. After 5 times washing with 200 μL of washing buffer solution (50 mM tris-HCl, pH 7.4), the plate was dried in a 37° C. oven for 18 hours. 100 μL of betascint cocktail solution was added to each well, and after 1 hour CPM of [^3H] labeled N-α-methylhistamine was measured by using Wallac beta-counter TriLux. The binding affinity (IC50) of the human histamine 3 receptor for the present invention was analyzed by an Excel program, and the results of analysis are shown in Table 2.

Data set [2] has as its target human histamine 4 receptor (hH4R) (Homo sapiens (Human), UniProt Q9H3N8). The experiment in a line: Binding affinity of human histamine 4 receptor (hH4R), [3H] labeled histamine displacement. Conditions: hH4R-overexpressed cell membrane, [3H] histamine. How it is done: 20 μL of the prepared compound solution was transferred to each well of a 96-well plate, and then 20 μL of 100 μM histamine diluted with analysis buffer solution and 1% DMSO were transferred to each well to calculate non-specific binding and total binding degree. 25 μg of human histamine 4 receptor-overexpressed cell membrane (PerkinElmer) was diluted into 160 μL of analysis buffer solution and that was transferred to each well. [^3H] labeled histamine (PerkinElmer) was diluted into 1 μM concentration, 20 μL was allocated in each well, and then it was kept in a 27° C. incubator for 30 minutes. After the reaction, 200 μL of the mixture was transferred to a glass fiber plate in which 0.5% polyethylene amine was presoaked, and then non-binding [^3H] labeled histamine was removed in vacuum. After 4 times washing with 200 μL of washing buffer solution (50 mM tris-HCl, pH 7.4), the plate was dried in a 37° C. oven for 18 hours. 100 μL of betascint cocktail solution was added to each well, and after 1 hour CPM (count per minute) value of [^3H] labeled histamine was measured by using Wallac beta-counter TriLux.

Data set [3] can be described thus: Solubility in artificial gastrointestinal tract solution. The data set is classed as physicochemical. Conditions: artificial gastrointestinal tract solution, thermodynamic from solid; for solubility at 1 h: fassgf or other biorelevant, first solution pH 1.2, 2 mg/mL sample, 37° C. 1 hour; for solubility at 2 h: fassif, second solution pH 6.5, 2 mg/mL sample, 37° C. 2 hours. Here is the method:
2.0 g of sodium chloride was added in 7.0 mL of 37% of hydrochloric acid and water to make the total volume of 1 L. The pH was adjusted to exactly 1.2 with 1N sodium hydroxide or 1N hydrochloric acid. A small amount (20 mL) of this solution was taken and added in 25 μL of triton X-100 to make the total volume of 25 mL.
0.348 g sodium hydroxide, 3.438 g NaH2PO4, 6.186 g sodium chloride and water were added to make the total volume of 1 L. The pH was adjusted to exactly 6.5 with 1N sodium hydroxide or 1N hydrochloric acid. A small amount (20 mL) of this solution was taken and 41.25 mg of sodium taurocholate hydrate and 25 μL of 750 mM lecithin dissolved in ethanol was added to make the total volume of 25 mL.
The heated test sample solutions were filtered to remove undissolved compounds therein. Finally, 100 μL of the completely compound-dissolved solution was sampled and 100 μL of CH3CN was added thereto to make the test sample solution. For each analysis of the test sample solution, the solubility was measured by using liquid chromatography.

Converted amounts (≈) assume the structure as drawn.

human histamine 3 receptor (hH3R), sequence (Q9Y5N1 whole entry): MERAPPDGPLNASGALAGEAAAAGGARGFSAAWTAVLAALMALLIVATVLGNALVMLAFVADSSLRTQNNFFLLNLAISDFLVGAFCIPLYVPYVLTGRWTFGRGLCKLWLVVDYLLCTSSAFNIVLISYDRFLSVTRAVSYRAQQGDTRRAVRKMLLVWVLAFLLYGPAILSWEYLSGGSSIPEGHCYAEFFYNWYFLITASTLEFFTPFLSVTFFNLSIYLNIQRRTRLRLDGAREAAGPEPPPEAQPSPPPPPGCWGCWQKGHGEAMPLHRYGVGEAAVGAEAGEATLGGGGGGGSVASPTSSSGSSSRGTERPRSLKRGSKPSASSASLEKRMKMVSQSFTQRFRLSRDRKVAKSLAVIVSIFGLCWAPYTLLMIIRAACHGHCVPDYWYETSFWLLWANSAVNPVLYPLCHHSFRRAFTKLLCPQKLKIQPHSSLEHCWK
human histamine 4 receptor (hH4R), sequence (Q9H3N8 whole entry): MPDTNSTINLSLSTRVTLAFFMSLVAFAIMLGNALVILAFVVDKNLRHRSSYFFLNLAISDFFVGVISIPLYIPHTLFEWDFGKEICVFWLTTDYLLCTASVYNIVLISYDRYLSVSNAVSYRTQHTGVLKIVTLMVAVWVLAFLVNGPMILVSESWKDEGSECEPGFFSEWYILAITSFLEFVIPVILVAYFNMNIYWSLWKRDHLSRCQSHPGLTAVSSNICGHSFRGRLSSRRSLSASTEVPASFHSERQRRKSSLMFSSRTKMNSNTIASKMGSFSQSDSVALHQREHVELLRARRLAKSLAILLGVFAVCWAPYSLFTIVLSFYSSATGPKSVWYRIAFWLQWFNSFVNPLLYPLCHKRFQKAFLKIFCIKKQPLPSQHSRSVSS

For the compound `Cc1cnc2nc(N3CCN(C)CC3)c3nncn3c2c1` [Compound 2, 8-Methyl-4-(4-methylpiperazin-1-yl)pyrido[2,3-e][1,2,4]triazolo[4,3-a]pyrazine], the results for the IC50 in data set [1] and in data set [2] were more than 100000 nM and 506 nM, respectively.
The like results for `CCOc1nc2nc(N3CCN(C)CC3)c3nncn3c2cc1Cl` [Compound 23, 8-Chloro-7-ethoxy-4-(4-methylpiperazin-1-yl)pyrido[2,3-e][1,2,4]triazolo[4,3-a]pyrazine] were, in that order, more than 100000 nM and 140 nM.
On to `CNC1CN(c2nc3nc(C#N)c(Cl)cc3n3cnnc23)C1` [Compound 28, 8-Chloro-4-(3-(methylamino)azetidin-1-yl)pyrido[2,3-e][1,2,4]triazolo[4,3-a]pyrazin-7-carbonitrile], for which the IC50 in data set [1] was more than 100000 nM; in data set [2], 490 nM.
`CN1CCN(c2nc3ncc(Cl)cc3c3ncnn23)CC1` [Compound 35, 9-Chloro-5-(4-methylpiperazin-1-yl)pyrido[3,2-e][1,2,4]triazolo[1,5-c]pyrimidine]: in data set [2], the concentration for half-maximal inhibition (IC50) came to 170 nM.
As for `CN1CCN(c2nc3ncc(Cl)cc3c3cn(C)nc23)CC1` [Compound 43, 8-Chloro-2-methyl-4-(4-methylpiperazin-1-yl)-2H-pyrazolo[3,4-c][1,8]naphthylidine], the IC50 in data set [1] came to 97000 nM; in data set [2], 70 nM.
As to `CN1CCN(c2nc3ncc(Cl)cc3n3ccnc23)CC1` [Compound 46, 8-Chloro-4-(4-methylpiperazin-1-yl)imidazo[1,2-a]pyrido[2,3-e]pyrazine], in data set [3], the solubility at 1 h came to 1910 µg/mL (≈ 6.32 mM) and the solubility at 2 h amounted to 1100 µg/mL (≈ 3.64 mM). The same compound displayed an IC50 in data set [2] of 154 nM.
Compound `Clc1cnc2nc(N3CCNCC3)c3nccn3c2c1` [Compound 47, 8-Chloro-4-(piperazin-1-yl)imidazo[1,2-a]pyrido[2,3-e]pyrazine] returned an IC50 in data set [2] of 618 nM.
Regarding `CN1CCN(c2nc3ncc(I)cc3n3cnnc23)CC1` [Compound 49, 8-Iodo-4-(4-methylpiperazin-1-yl)pyrido[2,3-e][1,2,4]triazolo[4,3-a]pyrazine], the IC50 is more than 100000 nM in data set [1] and 34 nM in data set [2].
For `CNC1CN(c2nc3ncc(C(F)F)cc3n3cnnc23)C1` [Compound 51, 1-(8-(Difluoromethyl)pyrido[2,3-e][1,2,4]triazolo[4,3-a]pyrazin-4-yl)-N-methylazetidin-3-amine], in that order: more than 100000 nM and 710 nM.
For `C=Cc1cnc2nc(N3CC(NC)C3)c3nncn3c2c1` [Compound 55, N-Methyl-1-(8-vinylpyrido[2,3-e][1,2,4]triazolo[4,3-a]pyrazin-4-yl)azetidin-3-amine], in that order: more than 100000 nM and 260 nM.
For the compound `COc1nc2nc(N3CCN(C)CC3)c3nncn3c2cc1Cl` [Compound 60, 8-Chloro-7-methoxy-4-(4-methylpiperazin-1-yl)pyrido[2,3-e][1,2,4]triazolo[4,3-a]pyrazine], the IC50 in data set [1] was more than 100000 nM; in data set [2] it was 610 nM.
The like results for `CCOc1nc2nc(N3CCNCC3)c3nncn3c2cc1Cl` [Compound 63, 8-Chloro-7-ethoxy-4-(piperazin-1-yl)pyrido[2,3-e][1,2,4]triazolo[4,3-a]pyrazine] were, in that order, more than 100000 nM and 580 nM.
The like results for `CN1CCN(c2nc3nc(OCC(F)(F)F)c(Cl)cc3n3cnnc23)CC1` [Compound 64, 8-Chloro-4-(4-methylpiperazin-1-yl)-7-(2,2,2-trifluoroethoxy)pyrido[2,3-e][1,2,4]triazolo[4,3-a]pyrazine] were, in that order, more than 100000 nM and 240 nM.
In data set [2], `Cc1c(Br)cnc2nc(N3CCN(C)CC3)c3nncn3c12` [Compound 66, 8-Bromo-9-methyl-4-(4-methylpiperazin-1-yl)pyrido[2,3-e][1,2,4]triazolo[4,3-a]pyrazine] returned an IC50 of 300 nM.
Turning to `CNC1CN(c2nc3ncc(Cl)c(Cl)c3n3cnnc23)C1` [Compound 67, 1-(8,9-Dichloropyrido[2,3-e][1,2,4]triazolo[4,3-a]pyrazin-4-yl)-N-methylazetidin-3-amine], the half-maximal inhibitory concentration (IC50) was more than 100000 nM in data set [1] and 314 nM in data set [2].
Regarding `CNC1CN(c2nc3ncc(Cl)cc3c3oc(C)nc23)C1` [Compound 91, 1-(8-Chloro-2-methyloxazolo[4,5-c][1,8]naphthylidine-4-yl)-N-methylazetidin-3-amine], in data set [3], the concentration in solution (solubility at 1 h) was 1840 µg/mL (≈ 6.04 mM) and the solubility at 2 h worked out at 1940 µg/mL (≈ 6.4 mM). For the same compound, the IC50 in data set [1] is more than 100000 nM.
In turn, `CN1CCN(c2nc3ncc(Cl)cc3n3nnnc23)CC1` [Compound 94, 8-Chloro-4-(4-methylpiperazin-1-yl)pyrido[2,3-e]tetrazolo[1,5-a]pyrazine] registered an IC50 in data set [2] of 62 nM.
The same measure, in the same setting: the value for `CN1CCN(c2nc3ncc(Br)cc3n3nnnc23)CC1` [Compound 96, 8-Bromo-4-(4-methylpiperazin-1-yl)pyrido[2,3-e]tetrazolo[1,5-a]pyrazine] was 28 nM.
As to `Cc1nc2nc(N3CCN(C)CC3)c3nncn3c2cc1Br` [Compound 100, 8-bromo-7-methyl-4-(4-methylpiperazin-1-yl)pyrido[2,3-e][1,2,4]triazolo[4,3-a]pyrazine], the IC50 is more than 100000 nM in data set [1] and 231 nM in data set [2].
As for `CNC1CN(C2=Nc3ncc(Br)cc3N3C[C@H](C)N=C23)C1` [Compound 105, (S)-1-(8-bromo-2-methyl-1,2-dihydroimidazo[1,2-a]pyrido[2,3-e]pyrazin-4-yl)-N-methylazetidin-3-amine], the IC50 in data set [1] was more than 100000 nM.
On the same count and under the same terms, under `CNC1CN(C2=Nc3ncc(Br)cc3N3C[C@@H](C)N=C23)C1` [Compound 106, (R)-1-(8-bromo-2-methyl-1,2-dihydroimidazo[1,2-a]pyrido[2,3-e]pyrazin-4-yl)-N-methylazetidin-3-amine] stands more than 100000 nM; under `CNC1CN(c2nc3ncc(Br)cc3n3cc(C)nc23)C1` [Compound 108, 1-(8-bromo-2-methylimidazo[1,2-a]pyrido[2,3-e]pyrazin-4-yl)-N-methylazetidin-3-amine], more than 100000 nM; under `CNC1CN(c2nc3ncc(Br)cc3c3cc(C)nn23)C1` [Compound 109, 1-(9-bromo-2-methylpyrazolo[1,5-c]pyrido[3,2-e]pyrimidin-5-yl)-N-methylazetidin-3-amine], more than 100000 nM.
Compound `CNC1CN(c2nc3ncc(N)cc3n3cnnc23)C1` [Compound 112, 4-(3-(methylamino)azetidin-1-yl)pyrido[2,3-e][1,2,4]triazolo[4,3-a]pyrazin-8-amine] came in with an IC50 in data set [1] of more than 100000 nM.
Same read-out and setting: the value for `CNC1CN(c2nc3ncc(-c4ccccc4)cc3n3cnnc23)C1` [Compound 113, N-methyl-1-(8-phenylpyrido[2,3-e][1,2,4]triazolo[4,3-a]pyrazin-4-yl)azetidin-3-amine] was more than 100000 nM.
Compound `CNC1CN(c2nc3ncc(-c4ccco4)cc3n3cnnc23)C1` [Compound 114, 1-(8-(furan-2-yl)pyrido[2,3-e][1,2,4]triazolo[4,3-a]pyrazin-4-yl)-N-methylazetidin-3-amine] gave an IC50 in data set [1] of more than 100000 nM.
Still for that read-out and setting: the value for `CNC1CN(c2nc3ncc(Br)cc3n3cccc23)C1` [Compound 115, 1-(2-bromopyrido[2,3-e]pyrrolo[1,2-a]pyrazin-6-yl)-N-methylazetidin-3-amine] was more than 100000 nM.
`CNC1CN(c2nc3cnc(Cl)cc3n3cnnc23)C1` [Compound 117, 1-(8-chloropyrido[3,4-e][1,2,4]triazolo[4,3-a]pyrazin-4-yl)-N-methylazetidin-3-amine]: the IC50 in data set [1] was more than 100000 nM; in data set [2], 210 nM.

One may read the IC50 as the concentration that gives 50% inhibition. A higher IC50 goes with weaker potency in that assay. In general, solubility refers to the concentration that dissolves in the medium under given conditions. Read a high solubility as much dissolved substance.

(Values after US9586959B2, “Substituted tricyclic heterocycles as histamine 4 receptor inhibitors” (C&C RESEARCH LABORATORIES, priority 2011, dated 2017).)
